“Also recorded” adds a separate entry of the source.
Tests used:
IL-6 = assay: LPS-induced IL-6 secretion from BV2 cells (CBA assay); assay type: cell-based, murine; settings: 1-20 μM
Procedure: Lipopolysaccharide (LPS) is a natural ligand of the TLR4/CD14 complex, which is highly expressed on myeloid cells
LPS was used to induce cytokine secretion from BV-2 cells. Cells were incubated with TQS-168 at various concentrations to assess whether TQS-168 could suppress the LPS-promoted release of various cytokines from in vitro cell cultures. Cytokine secretion was measured by cytometric bead array (CBA) fluorescence-activated cell sorting (FACS).
Briefly, a vial of BV2 frozen stock (1 million cells per ml in complete medium) was thawed into 10 mL of complete medium per vial for a total of 4 vials. The vials were then centrifuged at 1800 rpm for 3 minutes to wash away freezing media. The four vials were then pooled into 25 mL of complete medium. TQS-168 was prepared in DMSO.
Cells were incubated for 24 hours in the presence of medium (negative control), LPS (positive control), DMSO+LPS (positive control, controlling additionally for presence of DMSO in the TQS-168 stock solution), or LPS+TQS-168 at final concentrations of 1 μM, 5 μM, 10 μM, and 20 μM.
After the well plates were incubated overnight for 24 hours, they were centrifuged at 1800 rpm for 5 minutes. Next, 150 μl from each well was transferred to a new set of plates, of which 50 μl was used for CBA. […]

[1] = background statement; cited from earlier work
TNFα = TNFα release by LPS-stimulated BV2 cells (ELISA); assay type: cell-based, murine
Procedure: First, 100 μL of supernatant was removed from Cell Plate and transferred to a Dilution Plate, which was then centrifuged at 216×g for 10 minutes to remove particulates. The dilution plate was either assayed immediately or aliquots were taken and stored at ≤−20° C.; repeated freeze-thaw cycles were avoided.
Next, a standard curve was prepared by first pipetting 900 ul of Calibrator Diluent RD5K into the […] tube, followed by 200 μl of the appropriate calibrator diluent in the remaining tubes. The stock solution was used to produce a dilution. The resulting tubes were then thoroughly mixed. The Mouse TNFα Standard ([…]) served as the high standard, and the Calibrator Diluent RD5T served as the zero standard at 0 pg/ml.
Assay Diluent RD1-63 (50 uL) was then added to the center of each well and mixed before and during its use. Then, 50 ul of either standard, control, or sample was added to the center of each well, and covered with adhesive strip. […]
Substrate solution (100 uL) was then added to each well, incubated in the dark for 30 minutes at room temperature, followed by addition of 100 μl of Stop Solution and mixed. The optical density of each well was determined within 30 minutes by using a microplate reader set to 450 nm.
Plates were read on a Spectrostar Nano machine with built-in MARS data analysis at […] and 570 nM. […]

[2] = Phase 1 multiple dose trial, plasma pharmacokinetics (Part 2); settings: for Tmax: median
[3] = human plasma, Regimen I: 120 mg TQS-168 SDD QD 7 days, fasted, geometric mean
[4] = human plasma, Regimen J 90 mg SDD fed, Day 1
[5] = human plasma, Regimen J 90 mg SDD fed, Day 7
[6] = human plasma, Regimen J: 90 mg TQS-168 SDD QD 7 days, fed, geometric mean
[7] = human plasma, Regimen K: 300 mg TQS-168 SDD QD 7 days, fed, geometric mean

In the case of `CC(C)(C)c1ccc(-c2nc3ccccc3[nH]2)cc1` [TQS-168, 2-(4-tert-butylphenyl)-1H-benzimidazole], the “reduction of LPS-induced IL-6 secretion, dose response” value (IL-6) is given as “concentration-dependent; also recorded: dose-responsive inhibition”, the solubility [1] is given as “highly insoluble” and the “suppression of TNFα production” value (TNFα; BV-2 cells, 0.3 ng/mL LPS, 10 μM TQS-168, ELISA, 24 hours) is given as “about 25%”. For the same molecule, the inhibition at 10 µM (TNFα; Mus musculus, BV-2, 24 h, read-out: inhibition of TNFα production) was about 35%, the T1/2 ([2]; Regimen J, 90 mg TQS-168 SDD QD, fed, Day 7, geometric mean) was 4.46 h and the T1/2 ([2]; Regimen K, 300 mg TQS-168 SDD QD, fed, Day 7, geometric mean) was 5.67 h. For the same molecule, the “AUC(0-tau)” value ([2]; human plasma, Regimen I: 120 mg TQS-168 SDD QD 7 days, fasted, Day 1, geometric mean) was 438 ng·h/mL, the “AUC(0-tau)” value ([2]; human plasma, Regimen I: 120 mg TQS-168 SDD QD 7 days, fasted, Day 7, geometric mean) was 692 ng·h/mL and the “accumulation ratio based on AUC(0-tau)” value [2, 3] was 1.58. For the same molecule, the “accumulation ratio based on Cmax” value [2, 3] was 1.59, the “maximum individual AUC(0-tau) as share of the AUC(0-24) exposure limit” value [2, 4] was 10.9% and the “maximum individual Cmax as share of the Cmax exposure limit” value [2, 4] was 21.6%. The “maximum individual AUC(0-tau) as share of the AUC(0-24) exposure limit” value [2, 5] was 19.5%, the “maximum individual Cmax as share of the Cmax exposure limit” value [2, 5] was 30.9% and the “AUC(0-tau)” value ([2]; human plasma, Regimen J: 90 mg TQS-168 SDD QD 7 days, fed, Day 1, geometric mean) was 223 ng·h/mL. For the same molecule, the “AUC(0-tau)” value ([2]; human plasma, Regimen J: 90 mg TQS-168 SDD QD 7 days, fed, Day 7, geometric mean) was 227 ng·h/mL, the “accumulation ratio based on AUC(0-tau)” value [2, 6] was 1.24 and the “accumulation ratio based on Cmax” value [2, 6] was 1.03. For the same molecule, the “AUC(0-tau)” value ([2]; human plasma, Regimen K: 300 mg TQS-168 SDD QD 7 days, fed, Day 1, geometric mean) was 1210 ng·h/mL, the “AUC(0-tau)” value ([2]; human plasma, Regimen K: 300 mg TQS-168 SDD QD 7 days, fed, Day 7, geometric mean) was 2010 ng·h/mL and the “accumulation ratio based on AUC(0-tau)” value [2, 7] was 1.66. For the same molecule, the “accumulation ratio based on Cmax” value [2, 7] was 1.74, the AUC ([2]; male, human, in vivo, 90 mg, AUC(0-tau), Regimen J, 90 mg TQS-168 SDD QD, fed, Day 1, tau = 24 h, geometric mean) was 223 ng·h/mL and the AUC ([2]; male, human, in vivo, 90 mg, AUC(0-tau), Regimen J, 90 mg TQS-168 SDD QD, fed, Day 7, tau = 24 h, geometric mean) was 227 ng·h/mL. For the same molecule, the AUC ([2]; male, human, in vivo, 90 mg, AUC(0-tau), human plasma, Regimen J: 90 mg TQS-168 SDD QD 7 days, fed, Day 1, geometric mean) was 223 ng·h/mL, the AUC ([2]; male, human, in vivo, 90 mg, AUC(0-tau), human plasma, Regimen J: 90 mg TQS-168 SDD QD 7 days, fed, Day 7, geometric mean) was 227 ng·h/mL and the Cmax ([2]; male, human, in vivo, 90 mg, Cmax, Regimen J, 90 mg TQS-168 SDD QD, fed, Day 1, plasma, geometric mean) was 47.4 ng/mL. It also gave a Cmax ([2]; male, human, in vivo, 90 mg, Cmax, Regimen J, 90 mg TQS-168 SDD QD, fed, Day 7, plasma, geometric mean) of 48.8 ng/mL, a Cmax ([2]; male, human, in vivo, 90 mg, Cmax, human plasma, Regimen J: 90 mg TQS-168 SDD QD 7 days, fed, Day 1) of 190 nM and a Cmax ([2]; male, human, in vivo, 90 mg, Cmax, human plasma, Regimen J: 90 mg TQS-168 SDD QD 7 days, fed, Day 1, geometric mean) of 47.4 ng/mL. It also gave a Cmax ([2]; male, human, in vivo, 90 mg, Cmax, human plasma, Regimen J: 90 mg TQS-168 SDD QD 7 days, fed, Day 7) of 190 nM, a Cmax ([2]; male, human, in vivo, 90 mg, Cmax, human plasma, Regimen J: 90 mg TQS-168 SDD QD 7 days, fed, Day 7, geometric mean) of 48.8 ng/mL and a Tmax ([2]; male, human, in vivo, 90 mg, Tmax (median), Regimen J, 90 mg TQS-168 SDD QD, fed, Day 7, plasma) of 3 h. It also gave a Tmax ([2]; male, human, in vivo, 90 mg, Tmax, human plasma, Regimen J: 90 mg TQS-168 SDD QD 7 days, fed, Day 1) of 3 h, a Tmax ([2]; male, human, in vivo, 90 mg, Tmax, human plasma, Regimen J: 90 mg TQS-168 SDD QD 7 days, fed, Day 7) of 3 h and an AUC ([2]; male, human, in vivo, 90 mg, maximum individual AUC(0-tau), human plasma, Regimen J 90 mg SDD fed, Day 1) of 299 ng·h/mL. The AUC ([2]; male, human, in vivo, 90 mg, maximum individual AUC(0-tau), human plasma, Regimen J 90 mg SDD fed, Day 7) was 535 ng·h/mL, the Cmax ([2]; male, human, in vivo, 90 mg, maximum individual Cmax, human plasma, Regimen J 90 mg SDD fed, Day 1) was 65.8 ng/mL and the Cmax ([2]; male, human, in vivo, 90 mg, maximum individual Cmax, human plasma, Regimen J 90 mg SDD fed, Day 7) was 94.1 ng/mL. The half-life ([2]; male, human, in vivo, 120 mg) was 7.7 h, the AUC ([2]; male, human, in vivo, 120 mg, AUC(0-tau), human plasma, Regimen I: 120 mg TQS-168 SDD QD 7 days, fasted, Day 1, geometric mean) was 438 ng·h/mL and the AUC ([2]; male, human, in vivo, 120 mg, AUC(0-tau), human plasma, Regimen I: 120 mg TQS-168 SDD QD 7 days, fasted, Day 7, geometric mean) was 692 ng·h/mL. It also gave a Cmax ([2]; male, human, in vivo, 120 mg, Cmax, human plasma, Regimen I: 120 mg TQS-168 SDD QD 7 days, fasted, Day 1) of 690 nM, a Cmax ([2]; male, human, in vivo, 120 mg, Cmax, human plasma, Regimen I: 120 mg TQS-168 SDD QD 7 days, fasted, Day 1, geometric mean) of 172 ng/mL and a Cmax ([2]; male, human, in vivo, 120 mg, Cmax, human plasma, Regimen I: 120 mg TQS-168 SDD QD 7 days, fasted, Day 7) of 1090 nM. It also gave a Cmax ([2]; male, human, in vivo, 120 mg, Cmax, human plasma, Regimen I: 120 mg TQS-168 SDD QD 7 days, fasted, Day 7, geometric mean) of 273 ng/mL, a Tmax ([2]; male, human, in vivo, 120 mg, Tmax, human plasma, Regimen I: 120 mg TQS-168 SDD QD 7 days, fasted, Day 1) of 1 h and a Tmax ([2]; male, human, in vivo, 120 mg, Tmax, human plasma, Regimen I: 120 mg TQS-168 SDD QD 7 days, fasted, Day 7) of 0.75 h. For the same molecule, the AUC ([2]; male, human, in vivo, 300 mg, AUC(0-tau), Regimen K, 300 mg TQS-168 SDD QD, fed, Day 1, tau = 24 h, geometric mean) was 1210 ng·h/mL, the AUC ([2]; male, human, in vivo, 300 mg, AUC(0-tau), Regimen K, 300 mg TQS-168 SDD QD, fed, Day 7, tau = 24 h, geometric mean) was 2010 ng·h/mL and the AUC ([2]; male, human, in vivo, 300 mg, AUC(0-tau), human plasma, Regimen K: 300 mg TQS-168 SDD QD 7 days, fed, Day 1, geometric mean) was 1210 ng·h/mL. For the same molecule, the AUC ([2]; male, human, in vivo, 300 mg, AUC(0-tau), human plasma, Regimen K: 300 mg TQS-168 SDD QD 7 days, fed, Day 7, geometric mean) was 2010 ng·h/mL, the Cmax ([2]; male, human, in vivo, 300 mg, Cmax, Regimen K, 300 mg TQS-168 SDD QD, fed, Day 1, plasma, geometric mean) was 229 ng/mL and the Cmax ([2]; male, human, in vivo, 300 mg, Cmax, Regimen K, 300 mg TQS-168 SDD QD, fed, Day 7, plasma, geometric mean) was 400 ng/mL. The Cmax ([2]; male, human, in vivo, 300 mg, Cmax, human plasma, Regimen K: 300 mg TQS-168 SDD QD 7 days, fed, Day 1) was 910 nM, the Cmax ([2]; male, human, in vivo, 300 mg, Cmax, human plasma, Regimen K: 300 mg TQS-168 SDD QD 7 days, fed, Day 1, geometric mean) was 229 ng/mL and the Cmax ([2]; male, human, in vivo, 300 mg, Cmax, human plasma, Regimen K: 300 mg TQS-168 SDD QD 7 days, fed, Day 7) was 1600 nM. For the same molecule, the Cmax ([2]; male, human, in vivo, 300 mg, Cmax, human plasma, Regimen K: 300 mg TQS-168 SDD QD 7 days, fed, Day 7, geometric mean) was 400 ng/mL, the Tmax ([2]; male, human, in vivo, 300 mg, Tmax (median), Regimen K, 300 mg TQS-168 SDD QD, fed, Day 7, plasma) was 4 h and the Tmax ([2]; male, human, in vivo, 300 mg, Tmax, human plasma, Regimen K: 300 mg TQS-168 SDD QD 7 days, fed, Day 1) was 2 h. The Tmax ([2]; male, human, in vivo, 300 mg, Tmax, human plasma, Regimen K: 300 mg TQS-168 SDD QD 7 days, fed, Day 7) was 4 h, the Tmax ([2]; male, human, in vivo, po, 90 mg, Tmax (median), Regimen J, 90 mg TQS-168 SDD powder for oral suspension QD, fed, Day 1, plasma) was 3 h and the Tmax ([2]; male, human, in vivo, po, 300 mg, Tmax (median), Regimen K, 300 mg TQS-168 SDD powder for oral suspension QD, fed, Day 1, plasma) was 2 h.

From patent publication US20250281462A1, “THERAPEUTICALLY EFFECTIVE ORAL ADMINISTRATION OF A 2 ARYLBENZIMIDAZOLE” (Tranquis Therapeutics, Inc., priority 2021, published 2025)
